Results reported in patent US20120225889A1, “USE OF MACROCYCLIC LACTONE DERIVATIVES FOR THE TREATMENT OF INFLAMMATORY DISORDERS” (PIRAMAL LIFE SCIENCES LIMITED, priority 2010, published 2012).

Legend:
[1] = system: DBA/1J mice with collagen induced arthritis; assay: Arthritic mice: administration by osmotic pumps; format: in vivo; conditions: sub-cutaneous osmotic pumps, 240 μg/mouse/24 h, 26 days
Method: The experiment was performed in DBA/1J mice, in which arthritis was developed by injection of collagen emulsion, as described in Example 26.
The animals were divided into two groups, viz. a control group and a test compound treated group, having 6 animals each. The clear solution of test compound was prepared in 100% dimethyl sulfoxide (DMSO) and then DMSO concentration was brought down to 25% by addition of appropriate quantities of ethanol and polyethylene glycol 400 (PEG 400), so that the proportion of each solvent in a final solution v/v was 25:15:60::DMSO:EtOH:PEG-400. By this method absolutely clear solution of the compound having a final concentration of 40 mg/mL was obtained. This solution was filtered through 0.2μ filter and was filled in osmotic pumps (Alzet micro-osmotic pump model 1002). The delivery rate of this model of pump is 0.25 μL per hour and it remains functional for 14 days.
These pumps were then implanted sub-cutaneously in the animals of the test compound treated group (240 μg/mouse/24 h). The pumps filled with blank solvent were implanted sub-cutaneously in the animals of control group. Thereafter, their paws were scored for arthritic indices, in addition to measurement of thickness, daily once. After 14 days, the pumps were replaced with freshly filled pumps and the experiment was continued for next 12 days (total 26 days).

IFN-γ = assay: Concanavalin-A-induced IFN-γ production from hPBMC; format: cell-based; conditions: Homo sapiens; Con-A-induced production from hPBMCs, 18 h
Method: Peripheral blood mononuclear cells (hPBMC) were harvested using Ficoll-Hypaque density gradient centrifugation (1.077 g/mL; Sigma Aldrich). hPBMCs were resuspended in RPMI 1640 culture medium (Gibco BRL, Pasley, UK) containing 10% FCS, 100 U/mL penicillin (Sigma Chemical Co. St Louis, Mo.) and […] streptomycin (Sigma Chemical Co. St Louis, Mo.) at 1×10^6 cells/mL. 1×10^5 hPBMCs/well were pre-treated with test compound or 0.5% DMSO (carrier control) for 30 min at 37° C. Subsequently, these cells were stimulated with 1 μg/mL concanavalin A (Sigma Chemical Co., St. Louis, Mo.). Following 18 h incubation at 37° C., supernatants were collected and stored at −70° C. until assayed for human IFN-γ by ELISA as described by the manufacturer (OptiEIA ELISA sets, BD BioSciences). In each experiment, cyclosporin (1 μM) was used as a positive control for inhibiting induced IFN-γ production.

MyD88 = assay: Gene expression profile using RTQ-PCR: MyD88; format: cell-based, human; conditions: 3 μM
Method: The effect of the compound of example 7 was measured in stimulated untreated cells from the monocytic cell line (THP-1), human monocytes and synovial cells from rheumatoid arthritis patient. The effect of the compound in the THP-1 cell line was measured in terms of gene expression and was expressed as fold changes as compared to the cell stimulated control with no drug treatment.
THP-1 cells, human monocytes and synovial cells were treated with compound of example 7 or vehicle (0.5% DMSO). Total RNA isolation using a commercial RNA extraction kit (Qiagen Corporation, Germany) The first-strand cDNA was synthesized from total RNA using first strand cDNA synthesis kit from Invitrogen Corporation (California, USA). This was followed by real time quantitative polymerase chain reaction (RTQ PCR) using gene specific primers and standard thermal program of initial denaturation at 95° C. for 5 min and cycles of 95° C. for 10 seconds, followed by 60° C. for 30 seconds (Realplex PCR machine from Eppendorf, Germany). Quantitative measurement of products made during PCR cycles was normalized against a housekeeping gene (Actin) and was used to measure the gene expression as fold changes as compared to respective control.

IL-8 = assay: Synovial tissue assay (spontaneous production): IL-8; format: cell-based; conditions: Homo sapiens, synovial tissue cells from rheumatoid arthritis patients, 16 h, read-out: IC50 of IL-8 inhibition
Description: The ability of compounds of the present invention to inhibit spontaneous production of cytokines from freshly isolated human synovial tissue cells was designed as in reference, Lancet, 29, 244-247, (1989) the disclosure of which is incorporated by reference for the teaching of the assay.
Synovial tissue was obtained from rheumatoid arthritis patients undergoing knee replacement surgery. […] Subsequently, the cells were washed 3 times with RPMI 1640 culture medium and resuspended in complete medium (RPMI 1640 culture medium supplemented with 5% FBS and 5% human serum-AB+(Sigma, USA) at a concentration of 1×10^6 cells/mL. The viability of synovial cells was determined by trypan blue dye exclusion and was uniformly ≧98%. For the experiment, 100 μL of cell suspension was added to the wells of a 96-well culture plate (Nunc, USA). Following cell plating, 100 μL of the culture medium and 1 μL of various concentrations of the test compound (test compound was dissolved in DMSO to obtain a stock solution of 20 mM. […] The IC50 values were calculated by a nonlinear regression method using the GraphPad software (Prism 3.03).

C/C=C/C(O)C(C)/C=C/C(=N\O)C(C)C(O)C(C)C1OC(=O)/C(OC)=C/C(C)=C/C(C)C(O)C(CC)C(O)C(C)C/C(C)=C/C=C/C1OC (stereo not drawn) [Compound of example 7, (3Z,5E,13E,15E)-18-((5Z,6E,10E)-3,9-Dihydroxy-5-(hydroxymino)-4,8-dimethyldodeca-6,10-dien-2-yl)-9-ethyl-8,10-dihydroxy-3,17-dimethoxy-5,7,11,13-tetramethyl oxacyclooctadeca-3,5,13,15-tetraen-2-one]
severity of arthritis (arthritic scores and paw thickness) [1]: reduces severity of arthritis | IC50 (IFN-γ): 0.2 µM | MyD88 gene expression (MyD88; Human monocytes, 3 h, ± SE, N = 3): −0.2 + 1.9 log fold change | MyD88 gene expression (MyD88; Synovial cells, 12 h, N = 1): −0.5 log fold change | MyD88 gene expression (MyD88; THP-1 cells, 12 h, ± SE, N = 3): −0.2 + 0.2 log fold change | IC50 (IL-8): 1300 nM
